Results published in PubChem BioAssay AID1745844 (Carcinogenic Potency Database (CPDB), 2022).
Active and inactive are the calls of the source. No rule for the calls is given here.

Test system: rodent lifetime carcinogenesis bioassay, tumor incidence TD50
Test: chronic cancer bioassays in animals – CPDB, compiled studies (AID 1745844)

Compound	TD50 (mouse, strain B6C3F1, females, inhaled, site: any site (literature study), lesion: several types, types named in the paper, dosed 104 weeks, study length 105 weeks)	carcinogen call (mouse, strain B6C3F1, females, inhaled, site: liver, lesion: one or several types, types not named, dosed 52 weeks, study length 52 weeks)	carcinogen call (mouse, strain B6C3F1, females, inhaled, site: liver, lesion: one or several types, types not named, dosed 78 weeks, study length 78 weeks)	TD50 (mouse, strain B6C3F1, females, inhaled, site: lung, lesion: adenocarcinoma, dosed 52 weeks, study length 52 weeks)	TD50 (mouse, strain B6C3F1, females, inhaled, site: lung, lesion: adenocarcinoma, dosed 78 weeks, study length 78 weeks)	TD50 (mouse, strain B6C3F1, females, inhaled, site: lung, lesion: alveolar/bronchiolar adenoma + alveolar/bronchiolar carcinoma, dosed 104 weeks, study length 105 weeks) [mg/kg/day]	carcinogen call (mouse, strain B6C3F1, males, inhaled, site: any site (literature study), lesion: several types, types named in the paper, dosed 104 weeks, study length 104 weeks)	carcinogen call (mouse, strain B6C3F1, males, inhaled, site: liver, lesion: hepatocellular carcinoma, dosed 52 weeks, study length 52 weeks)	carcinogen call (mouse, strain B6C3F1, males, inhaled, site: liver, lesion: hepatocellular carcinoma, dosed 78 weeks, study length 78 weeks)	carcinogen call (mouse, strain B6C3F1, males, inhaled, site: lung, lesion: adenocarcinoma, dosed 52 weeks, study length 52 weeks)	TD50 (mouse, strain B6C3F1, males, inhaled, site: lung, lesion: adenocarcinoma, dosed 78 weeks, study length 78 weeks)	TD50 (rat, strain Fischer 344, females, inhaled, site: any site (literature study), lesion: several types, types named in the paper, dosed 104 weeks, study length 104 weeks)	TD50 (rat, strain Fischer 344, males, inhaled, site: any site (literature study), lesion: several types, types named in the paper, dosed 104 weeks, study length 104 weeks)	TD50 (hamster, strain Syrian Golden, females, by gavage, site: forestomach, lesion: several types, types named in the paper, dosed 30 weeks, study length 104 weeks) [mg/kg/day]	TD50 (hamster, strain Syrian Golden, males, by gavage, site: any site (literature study), lesion: several types, types named in the paper, dosed 35 weeks, study length 65 weeks) [mg/kg/day]	TD50 (hamster, strain Syrian Golden, males, by gavage, site: liver, lesion: cholangiocarcinoma, dosed 35 weeks, study length 65 weeks) [mg/kg/day]	TD50 (hamster, strain Syrian Golden, males, by gavage, site: liver, lesion: hepatocellular adenoma, dosed 35 weeks, study length 65 weeks) [mg/kg/day]	TD50 (hamster, strain Syrian Golden, males, by gavage, site: liver, lesion: hepatocellular carcinoma, dosed 35 weeks, study length 65 weeks) [mg/kg/day]	TD50 (hamster, strain Syrian Golden, males, by gavage, site: lung, lesion: carcinoma, dosed 35 weeks, study length 65 weeks) [mg/kg/day]
O=CCCCC=O	3.08 mg/kg/day (inactive)	negative (inactive)	negative (inactive)	0.54 mg/kg/day (inactive)	0.347 mg/kg/day (inactive)	17.4	negative (inactive)	negative (inactive)	negative (inactive)	negative (inactive)	1.14 mg/kg/day (inactive)	0.125 mg/kg/day (inactive)	0.239 mg/kg/day (inactive)	–	–	–	–	–	–
O=NN1CCOC1	–	–	–	–	–	–	–	–	–	–	–	–	–	2.61	0.267	0.471	0.949	2.63	14.8
